Test results as given in PMC12348107, “Saponins from Oxybasis rubra (L.) S.Fuentes, Uotila & Borsh: Comparative Assessment of Cytotoxic Potential Against a Wide Panel of Cancer Cell Lines” (Molecules, 2025).
“And” between values parts separate entries of the source, which are not always exact repeats. Identical values can stand only once. Like-named read-outs stand apart in the source and are kept apart here. Marks after values point to notes of the source that are not given here.

Legend:
[1] = LDH cytotoxicity assay, HaCaT; type: cell-based, human; conditions: human, HaCaT normal keratinocytes, HaCaT normal cells, LDH test, read-out: Cytotoxic activity expressed as IC50
Protocol: (§1) The cytotoxic activity was tested on human cancer and normal cell lines, grouped in several panels: skin (malignant melanoma HTB-140, malignant melanoma A375, melanoma WM793, and normal keratinocytes HaCaT), prostate (prostate carcinoma DU-145, prostate carcinoma PC3, and prostate epithelial cells PNT2), thyroid (thyroid carcinoma FTC133, thyroid carcinoma, undifferentiated 8505C), gastrointestinal panel (hepatocellular carcinoma HepG2, colon adenocarcinoma Caco-2, and colon adenocarcinoma HT29), and single line of lung carcinoma A549. Cells were grown at standard conditions (37 °C, 5% CO2, relative humidity) and culture media (DMEM/F12 for PNT2, WM793, HT29, A549; DMEM Low Glucose for DU-145; DMEM High Glucose for A375, HaCaT, A549; MEM with NEAA for Caco-2), supplemented with 10% fetal bovine serum (FBS) and 1% antibiotic solution (10,000 U penicillin and 10 mg streptomycin/mL). All cell lines, cell culture media, and supplements were from Merck (Seelze, Germany).
(§2) Before the experiment, cells were seeded onto 96-well plates for 24 h, at a density of 1.5 × 10^4 cells/ well. Then the tested compounds (5–100 μg/mL) were added and incubated for 24 and 48 h. Cell viability was measured with the lactate dehydrogenase (LDH) assay by Clontech (Clontech, Mountain View, CA, USA), as described previously. The absorbance was measured at 490 nm using a Biotek Synergy microplate reader (BioTek Instruments Inc., Winooski, VT, USA). Cell viability was expressed as a percentage of dead cells. Each experiment was conducted in triplicate. Doxorubicin was used as a reference cytostatic.
(§3) The results were expressed as mean (±SD). Data were analyzed using Statistica v.13.3 (StatSoft, Tulsa, OK, USA). The IC50 values were calculated using OriginPro 2020b (64-bit) 9.7.5.184 (Academic) (OriginLab Corporation, Northampton, MA, USA). One-way analysis of variance (ANOVA) and the post-hoc Tukey multiple comparison test were used. The statistical significance was defined at the probability level of p < 0.05. Principal component analysis (PCA) and hierarchical cluster analysis (HCA) were performed using Statistica v.13.3 (StatSoft, Tulsa, OK, USA). Prior to PCA, the Bartlett’s sphericity test was conducted, and the Kaiser-Meyer-Olkin Measure of Sampling Adequacy index (KMO) was examined. In the simple model, for each compound tested (1–4), the cell lines were the cases, and the different concentrations of the compound were the parameters. This was followed by a PCA model in which the cell lines were the parameters, and the compounds (at different concentrations) were the cases. All PCA models were based on a correlation matrix. Hierarchical cluster analysis (CA) based on standardized data was performed using Ward’s method and Euclidean distance. The results were grouped based on Mojena’s rule.

[2] = system: HaCaT normal keratinocytes; assay: LDH cytotoxicity assay, HaCaT; type: cell-based, human; conditions: HaCaT normal cells, 48 h incubation, LDH test
Protocol: as §1, §2, §3

[3] = LDH cytotoxicity assay, PNT2; type: cell-based, human; conditions: human, PNT2 prostate epithelial cells (normal), PNT2 normal cells, LDH test, read-out: Cytotoxic activity expressed as IC50
Protocol: as §1, §2, §3

[4] = system: PNT2 prostate epithelial cells; assay: LDH cytotoxicity assay, PNT2; type: cell-based, human; conditions: normal prostate epithelial cells
Protocol: as §1, §2, §3

[5] = system: WM793 primary melanoma cells; assay: LDH cytotoxicity assay, WM793; type: cell-based; conditions: Homo sapiens, LDH test, read-out: Cytotoxic activity expressed as IC50
Protocol: as §1, §2, §3

[6] = system: HTB-140 malignant melanoma cells; assay: LDH cytotoxicity assay, HTB-140; type: cell-based; conditions: Homo sapiens, LDH test, read-out: Cytotoxic activity expressed as IC50
Protocol: as §1, §2, §3

[7] = system: Caco-2 colon adenocarcinoma cells; assay: LDH cytotoxicity assay, Caco-2; type: cell-based; conditions: Homo sapiens, LDH test, read-out: Cytotoxic activity expressed as IC50
Protocol: as §1, §2, §3

[8] = system: 8505C undifferentiated thyroid carcinoma cells; assay: LDH cytotoxicity assay, 8505C; type: cell-based; conditions: Homo sapiens, LDH test, read-out: Cytotoxic activity expressed as IC50
Protocol: as §1, §2, §3

[9] = system: A375 malignant melanoma cells; assay: LDH cytotoxicity assay, A375; type: cell-based; conditions: Homo sapiens, A-375, LDH test, read-out: Cytotoxic activity expressed as IC50
Protocol: as §1, §2, §3

[10] = system: HT29 colon adenocarcinoma cells; assay: LDH cytotoxicity assay, HT29; type: cell-based; conditions: Homo sapiens, HT-29, LDH test, read-out: Cytotoxic activity expressed as IC50
Protocol: as §1, §2, §3

[11] = system: HepG2 hepatocellular carcinoma cells; assay: LDH cytotoxicity assay, HepG2; type: cell-based; conditions: Homo sapiens, LDH test, read-out: Cytotoxic activity expressed as IC50
Protocol: as §1, §2, §3

[12] = system: PC3 metastatic prostate carcinoma cells; assay: LDH cytotoxicity assay, PC3; type: cell-based; conditions: Homo sapiens, LDH test, read-out: Cytotoxic activity expressed as IC50
Protocol: as §1, §2, §3

[13] = system: DU-145 metastatic prostate carcinoma cells; assay: LDH cytotoxicity assay, DU-145; type: cell-based, human; conditions: for IC50: Homo sapiens, LDH test, read-out: Cytotoxic activity expressed as IC50
Protocol: as §1, §2, §3

[14] = system: FTC133 follicular thyroid carcinoma cells; assay: LDH cytotoxicity assay, FTC133; type: cell-based; conditions: Homo sapiens, FTC-133, LDH test, read-out: Cytotoxic activity expressed as IC50
Protocol: as §1, §2, §3

[15] = system: A549 lung carcinoma cells; assay: LDH cytotoxicity assay, A549; type: cell-based, human; conditions: LDH test; for IC50: Homo sapiens, read-out: Cytotoxic activity expressed as IC50
Protocol: as §1, §2, §3

CC1(C)CC[C@]2(C(=O)O[C@@H]3O[C@H](CO)[C@@H](O)[C@H](O)[C@H]3O)CC[C@]3(C)C(=CC[C@@H]4[C@@]5(C)CC[C@H](O[C@@H]6O[C@H](CO)[C@@H](O)[C@H](O[C@@H]7O[C@H](CO)[C@@H](O)[C@H](O)[C@H]7O)[C@H]6O)[C@@](C)(CO)[C@@H]5CC[C@]43C)[C@@H]2C1 [Compound 2]
IC50 at 24 h ([1]; 24 h incubation): 46.8 µM and 44.9 µg/mL | IC50 at 48 h ([1]; 48 h incubation): 41.6 µM and 39.9 µg/mL | Cytotoxic activity expressed as IC50 [2]: 39.93 ± 0.52 ^b µg/mL | IC50 at 24 h ([3]; 24 h incubation): > 100 µg/mL | IC50 at 48 h ([3]; 48 h incubation): > 100 µg/mL | IC50 ([4]; Homo sapiens, PNT2, incubation time not given, read-out: IC50 against normal prostate epithelial cells): > 100 µg/mL | Toxicity to normal prostate epithelial cells, in words [4]: non-toxic | IC50 ([5]; WM793, 24 h incubation): 14.4 µM and 13.8 µg/mL | IC50 ([5]; WM793, 48 h incubation): 6.79 µM and 6.52 µg/mL | IC50 ([6]; HTB-140, 24 h incubation): > 100 µg/mL | IC50 ([6]; HTB-140, 48 h incubation): > 100 µg/mL | IC50 ([7]; Caco-2, 24 h incubation): > 100 µg/mL | IC50 ([7]; Caco-2, 48 h incubation): 38.4 µM and 36.8 µg/mL | IC50 ([8]; 24 h incubation): > 100 µg/mL | IC50 ([8]; 48 h incubation): > 100 µg/mL | IC50 ([9]; A375, 24 h incubation): 33.9 µM and 32.5 µg/mL | IC50 ([9]; A375, 48 h incubation): 31.4 µM and 30.1 µg/mL | IC50 ([10]; HT29, 24 h incubation): > 100 µg/mL | IC50 ([10]; HT29, 48 h incubation): 66.5 µM and 63.8 µg/mL | IC50 ([11]; HepG2, 24 h incubation): 98 µM and 94 µg/mL | IC50 ([11]; HepG2, 48 h incubation): 63 µM and 60.5 µg/mL | IC50 ([12]; PC3, 24 h incubation): > 100 µg/mL | IC50 ([12]; PC3, 48 h incubation): 69.8 µM and 67 µg/mL | Toxicity against DU-145, in words ([13]; DU-145): moderate toxicity | IC50 ([13]; DU-145, 24 h incubation): 33.3 µM and 32 µg/mL | IC50 ([13]; DU-145, 48 h incubation): 22 µM and 21.1 µg/mL | IC50 ([14]; FTC133, 24 h incubation): 42.9 µM and 41.1 µg/mL | IC50 ([14]; FTC133, 48 h incubation): 23.5 µM and 22.5 µg/mL | Cytotoxic activity expressed as IC50 ([15]; A549, 48 h incubation): 8.23 ± 0.29 ^a µg/mL | IC50 ([15]; A549, 24 h, A549, 24 h incubation): 13.8 µM and 13.2 µg/mL | IC50 ([15]; A549, 48 h, A549, 48 h incubation): 8.58 µM and 8.24 µg/mL
